In publication PMC11676667, “Pharmacokinetics of Oral Cannabinoid Δ8-Tetrahydrocannabivarin and Its Main Metabolites in Healthy Participants” (Pharmaceuticals, 2024):
Read-outs that look alike come from different tables or passages of the source.

Legend:
[1] = Plasma pharmacokinetics after single oral dose of Δ8-THCV in MCT oil (LC-MS/MS, non-compartmental analysis); assay type: in vivo, human; set-up: Clast (last quantifiable concentration): unit not given here; conditions: for plasma concentration: Predose; for concentration at 0.5 h / concentration at 1 h / concentration at 2 h / concentration at 4 h / concentration at 6 h / concentration at 8 h / AUC(0-t) / Cmax / MRT / Tmax: human; for concentration at 0.5 h / concentration at 1 h / concentration at 2 h / concentration at 4 h / concentration at 6 h / concentration at 8 h: oral; for AUC(0-t) / Cmax / MRT / Tmax: po; for MRT: read-out: MRT (mean residence time)
Summary of the method: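 Healthy participants received single oral Δ8-THCV in MCT oil (50 mg/mL; 12.5-200 mg, or placebo) after a high-fat, high-calorie breakfast, with ≥1-week washout. Plasma (K2EDTA) sampled predose and 0.5-8 h post-dose, assayed by validated LC-MS/MS including metabolites; PK by non-compartmental analysis, sub-LLOQ values set to 0.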

CB2 receptors = system: CB2 receptors; set-up: method as in PMID 21470208; conditions: in vitro; cited from earlier work
[2] = 12.5 mg single oral Δ8-THCV in MCT oil, plasma, Mean (±SD)
[3] = 12.5 mg single oral Δ8-THCV in MCT oil, plasma, Median (Range)
[4] = 25 mg single oral Δ8-THCV in MCT oil, plasma, Mean (±SD)
[5] = 25 mg single oral Δ8-THCV in MCT oil, plasma, Median (Range)
[6] = 50 mg single oral Δ8-THCV in MCT oil, plasma, Mean (±SD)
[7] = 50 mg single oral Δ8-THCV in MCT oil, plasma, Median (Range)
[8] = 100 mg single oral Δ8-THCV in MCT oil, plasma, Mean (±SD)
[9] = 100 mg single oral Δ8-THCV in MCT oil, plasma, Median (Range)
[10] = 200 mg single oral Δ8-THCV in MCT oil, plasma, Mean (±SD)
[11] = 200 mg single oral Δ8-THCV in MCT oil, plasma, Median (Range)
[12] = plasma, 12.5 mg, 12.5 mg Δ8-THCV dose, Mean (SD, %CV)
[13] = plasma, 12.5 mg, 12.5 mg Δ8-THCV dose, Median (IQ Range)
[14] = plasma, 25 mg, 25 mg Δ8-THCV dose, Mean (SD, %CV)
[15] = plasma, 25 mg, 25 mg Δ8-THCV dose, Median (IQ Range)
[16] = plasma, 50 mg, 50 mg Δ8-THCV dose, Mean (SD, %CV)
[17] = plasma, 50 mg, 50 mg Δ8-THCV dose, Median (IQ Range)
[18] = plasma, 100 mg, 100 mg Δ8-THCV dose, Mean (SD, %CV)
[19] = plasma, 100 mg, 100 mg Δ8-THCV dose, Median (IQ Range)
[20] = plasma, 200 mg, 200 mg Δ8-THCV dose, Mean (SD, %CV)
[21] = plasma, 200 mg, 200 mg Δ8-THCV dose, Median (IQ Range)
[22] = plasma, 12.5 mg, 12.5 mg single oral Δ8-THCV in MCT oil, Mean (±SD)
[23] = plasma, 12.5 mg, 12.5 mg single oral Δ8-THCV in MCT oil, Median (Range)
[24] = plasma, 25 mg, 25 mg single oral Δ8-THCV in MCT oil, Mean (±SD)
[25] = plasma, 25 mg, 25 mg single oral Δ8-THCV in MCT oil, Median (Range)
[26] = plasma, 50 mg, 50 mg single oral Δ8-THCV in MCT oil, Mean (±SD)
[27] = plasma, 50 mg, 50 mg single oral Δ8-THCV in MCT oil, Median (Range)
[28] = plasma, 100 mg, 100 mg single oral Δ8-THCV in MCT oil, Mean (±SD)
[29] = plasma, 100 mg, 100 mg single oral Δ8-THCV in MCT oil, Median (Range)
[30] = plasma, 200 mg, 200 mg single oral Δ8-THCV in MCT oil, Mean (±SD)
[31] = plasma, 200 mg, 200 mg single oral Δ8-THCV in MCT oil, Median (Range)

## CCCc1cc(O)c2c(c1)OC(C)(C)[C@@H]1CC=C(C)C[C@@H]21 [Δ8-THCV, Δ8-tetrahydrocannabivarin]
[1]; [2]
  Clast (last quantifiable concentration): 0.9 (±0.3)
  tlast (time to last quantifiable concentration): 5.3 (±2.3)
[1]; [3]
  Clast (last quantifiable concentration): 0.7 (0.6–1.5)
  tlast (time to last quantifiable concentration): 5 (2–8)
[1]; [4]
  Clast (last quantifiable concentration): 1.1 (±0.4)
  tlast (time to last quantifiable concentration): 6.3 (±1.9)
[1]; [5]
  Clast (last quantifiable concentration): 1 (0.5–1.8)
  tlast (time to last quantifiable concentration): 7 (4–8)
[1]; [6]
  Clast (last quantifiable concentration): 2.3 (±1.5)
  tlast (time to last quantifiable concentration): 7.9 (±0.5)
[1]; [7]
  Clast (last quantifiable concentration): 2.2 (0.6–5.5)
  tlast (time to last quantifiable concentration): 8 (6–8)
[1]; [8]
  Clast (last quantifiable concentration): 4.1 (±3.1)
  tlast (time to last quantifiable concentration): 8 (±0)
[1]; [9]
  Clast (last quantifiable concentration): 3.1 (0.8–9.9)
  tlast (time to last quantifiable concentration): 8 (8–8)
[1]; [10]
  Clast (last quantifiable concentration): 21.2 (±23.2)
  tlast (time to last quantifiable concentration): 8 (±0)
[1]; [11]
  Clast (last quantifiable concentration): 13.4 (1.5–87.6)
  tlast (time to last quantifiable concentration): 8 (8–8)
[1]; 12.5 mg Δ8-THCV dose, Mean (SD, %CV)
  plasma concentration: 0 (±0, --) ng/mL
[1]; 12.5 mg Δ8-THCV dose, Median (IQ Range)
  plasma concentration: 0 (0–0) ng/mL
[1]; 25 mg Δ8-THCV dose, Mean (SD, %CV)
  plasma concentration: 0 (±0, --) ng/mL
[1]; 25 mg Δ8-THCV dose, Median (IQ Range)
  plasma concentration: 0 (0–0) ng/mL
[1]; 50 mg Δ8-THCV dose, Mean (SD, %CV)
  plasma concentration: 0 (±0, --) ng/mL
[1]; 50 mg Δ8-THCV dose, Median (IQ Range)
  plasma concentration: 0 (0–0) ng/mL
[1]; 100 mg Δ8-THCV dose, Mean (SD, %CV)
  plasma concentration: 0 (±0, --) ng/mL
[1]; 100 mg Δ8-THCV dose, Median (IQ Range)
  plasma concentration: 0 (0–0) ng/mL
[1]; 200 mg Δ8-THCV dose, Mean (SD, %CV)
  plasma concentration: 0 (±0, --) ng/mL
[1]; 200 mg Δ8-THCV dose, Median (IQ Range)
  plasma concentration: 0 (0–0) ng/mL
[1]; after the 200 mg dose, Δ8-THCV = 1
  median AUClast ratio Δ8-THCV-COOH/Δ8-THCV/11-OH-Δ8-THCV: 1
[1]; [12]
  concentration at 0.5 h: 0 ng/mL
  concentration at 1 h: 0.1 ng/mL
  concentration at 2 h: 0.4 ng/mL
  concentration at 4 h: 0.7 ng/mL
  concentration at 6 h: 0.5 ng/mL
  concentration at 8 h: 0.2 ng/mL
[1]; [13]
  concentration at 0.5 h: 0 ng/mL
  concentration at 1 h: 0 ng/mL
  concentration at 2 h: 0 ng/mL
  concentration at 4 h: 0.6 ng/mL
  concentration at 6 h: 0 ng/mL
  concentration at 8 h: 0 ng/mL
[1]; [14]
  concentration at 0.5 h: 0 ng/mL
  concentration at 1 h: 0.3 ng/mL
  concentration at 2 h: 1.4 ng/mL
  concentration at 4 h: 1.8 ng/mL
  concentration at 6 h: 0.9 ng/mL
  concentration at 8 h: 0.4 ng/mL
[1]; [15]
  concentration at 0.5 h: 0 ng/mL
  concentration at 1 h: 0 ng/mL
  concentration at 2 h: 0.3 ng/mL
  concentration at 4 h: 1.5 ng/mL
  concentration at 6 h: 0.7 ng/mL
  concentration at 8 h: 0.3 ng/mL
[1]; [16]
  concentration at 0.5 h: 0.1 ng/mL
  concentration at 1 h: 0.5 ng/mL
  concentration at 2 h: 2.6 ng/mL
  concentration at 4 h: 4.3 ng/mL
  concentration at 6 h: 6.1 ng/mL
  concentration at 8 h: 2.2 ng/mL
[1]; [17]
  concentration at 0.5 h: 0 ng/mL
  concentration at 1 h: 0 ng/mL
  concentration at 2 h: 0 ng/mL
  concentration at 4 h: 2.4 ng/mL
  concentration at 6 h: 2.8 ng/mL
  concentration at 8 h: 2.2 ng/mL
[1]; [18]
  concentration at 0.5 h: 0.2 ng/mL
  concentration at 1 h: 4.2 ng/mL
  concentration at 2 h: 7.1 ng/mL
  concentration at 4 h: 11.4 ng/mL
  concentration at 6 h: 12.3 ng/mL
  concentration at 8 h: 4.1 ng/mL
[1]; [19]
  concentration at 0.5 h: 0 ng/mL
  concentration at 1 h: 2.1 ng/mL
  concentration at 2 h: 5.5 ng/mL
  concentration at 4 h: 7.3 ng/mL
  concentration at 6 h: 7.7 ng/mL
  concentration at 8 h: 3.1 ng/mL
[1]; [20]
  concentration at 0.5 h: 0.1 ng/mL
  concentration at 1 h: 3.6 ng/mL
  concentration at 2 h: 21.4 ng/mL
  concentration at 4 h: 29.4 ng/mL
  concentration at 6 h: 26.6 ng/mL
  concentration at 8 h: 21.2 ng/mL
[1]; [21]
  concentration at 0.5 h: 0 ng/mL
  concentration at 1 h: 2 ng/mL
  concentration at 2 h: 14.3 ng/mL
  concentration at 4 h: 33.3 ng/mL
  concentration at 6 h: 21.8 ng/mL
  concentration at 8 h: 13.4 ng/mL
[1]; [22]
  AUC(0-t): 3.5 ng·h/mL
  Cmax: 1.6 ng/mL
[1]; [23]
  AUC(0-t): 2.1 ng·h/mL
  Cmax: 1.1 ng/mL
[1]; plasma, 12.5 mg, 12.5 mg single oral Δ8-THCV in MCT oil, plasma, Mean (±SD)
  MRT: 4 h
[1]; plasma, 12.5 mg, 12.5 mg single oral Δ8-THCV in MCT oil, plasma, Mean (±SD), read-out: tmax
  Tmax: 3.9 h
[1]; plasma, 12.5 mg, 12.5 mg single oral Δ8-THCV in MCT oil, plasma, Median (Range)
  MRT: 4 h
[1]; plasma, 12.5 mg, 12.5 mg single oral Δ8-THCV in MCT oil, plasma, Median (Range), read-out: tmax
  Tmax: 4 h
[1]; [24]
  AUC(0-t): 7.4 ng·h/mL
  Cmax: 2.6 ng/mL
[1]; [25]
  AUC(0-t): 5.2 ng·h/mL
  Cmax: 2.1 ng/mL
[1]; plasma, 25 mg, 25 mg single oral Δ8-THCV in MCT oil, plasma, Mean (±SD)
  MRT: 4.1 h
[1]; plasma, 25 mg, 25 mg single oral Δ8-THCV in MCT oil, plasma, Mean (±SD), read-out: tmax
  Tmax: 3.8 h
[1]; plasma, 25 mg, 25 mg single oral Δ8-THCV in MCT oil, plasma, Median (Range)
  MRT: 4.2 h
[1]; plasma, 25 mg, 25 mg single oral Δ8-THCV in MCT oil, plasma, Median (Range), read-out: tmax
  Tmax: 4 h
[1]; [26]
  AUC(0-t): 27.3 ng·h/mL
  Cmax: 10 ng/mL
[1]; [27]
  AUC(0-t): 24.9 ng·h/mL
  Cmax: 10 ng/mL
[1]; plasma, 50 mg, 50 mg single oral Δ8-THCV in MCT oil, plasma, Mean (±SD)
  MRT: 5.2 h
[1]; plasma, 50 mg, 50 mg single oral Δ8-THCV in MCT oil, plasma, Mean (±SD), read-out: tmax
  Tmax: 5 h
[1]; plasma, 50 mg, 50 mg single oral Δ8-THCV in MCT oil, plasma, Median (Range)
  MRT: 5.4 h
[1]; plasma, 50 mg, 50 mg single oral Δ8-THCV in MCT oil, plasma, Median (Range), read-out: tmax
  Tmax: 6 h
[1]; [28]
  AUC(0-t): 65.5 ng·h/mL
  Cmax: 21.5 ng/mL
[1]; [29]
  AUC(0-t): 58.4 ng·h/mL
  Cmax: 22 ng/mL
[1]; plasma, 100 mg, 100 mg single oral Δ8-THCV in MCT oil, plasma, Mean (±SD)
  MRT: 4.5 h
[1]; plasma, 100 mg, 100 mg single oral Δ8-THCV in MCT oil, plasma, Mean (±SD), read-out: tmax
  Tmax: 4.2 h
[1]; plasma, 100 mg, 100 mg single oral Δ8-THCV in MCT oil, plasma, Median (Range)
  MRT: 4.1 h
[1]; plasma, 100 mg, 100 mg single oral Δ8-THCV in MCT oil, plasma, Median (Range), read-out: tmax
  Tmax: 4 h
[1]; [30]
  AUC(0-t): 168 ng·h/mL
  Cmax: 52.9 ng/mL
[1]; [31]
  AUC(0-t): 165 ng·h/mL
  Cmax: 51.7 ng/mL
[1]; plasma, 200 mg, 200 mg single oral Δ8-THCV in MCT oil, plasma, Mean (±SD)
  MRT: 4.7 h
[1]; plasma, 200 mg, 200 mg single oral Δ8-THCV in MCT oil, plasma, Mean (±SD), read-out: tmax
  Tmax: 4.7 h
[1]; plasma, 200 mg, 200 mg single oral Δ8-THCV in MCT oil, plasma, Median (Range)
  MRT: 4.7 h
[1]; plasma, 200 mg, 200 mg single oral Δ8-THCV in MCT oil, plasma, Median (Range), read-out: tmax
  Tmax: 4 h
[1]; plasma, across oral Δ8-THCV doses 12.5-200 mg, plasma, read-out: median time-to-maximum concentration (tmax), range across doses
  Tmax: 3.8 to 5 h
[1]; of 504 plasma samples from 15 participants after oral Δ8-THCV
  number of positive plasma samples: 236
[1]; one subject after oral Δ8-THCV in MCT oil, Figure A1
  concentration in representative plasma sample: 69.8 ng/mL
[1]; oral Δ8-THCV 12.5-200 mg, plasma
  increase of median AUClast every two-fold increase in the dose: 2.3- to 4.8 fold
[1]; oral Δ8-THCV, plasma
  tmax later after doses greater than 50 mg compared to the 12.5 mg and 25 mg doses: 1.3 fold
CB2 receptors
  CB2 receptor activation: activate CB2 receptors
